Each block holds one compound with its values, some of them ahead of it. Square brackets hold non-standard residues; d marks the D form. Ends that are not written are not given here. Peptide text beside a SMILES is read from it.
What was measured:
[1] = cited from earlier work
[2] = test system: fibroblasts (NIH 3T3, mouse); test: Fibroblast adhesion and proliferation on hydrogel by optical microscopy; assay type: cell-based; conditions: fresh media provided; assay stopped after 1 month
Procedure: These cells were used as a model system because of their importance in connective tissue development and their easily distinguished morphology when adhered to the hydrogel scaffold. Qualitative studies were performed in which cells were added to either polystyrene control wells or wells containing a uniform slab (3 mm thick) of MAX1-hydrogel. Cell adhesion was qualitatively monitored via direct observation of cell spreading after four hours from the time of initial cell seeding by optical microscopy (a quantitative cell attachment assay is described below, see also Akiyama, S. K. Functional analysis of cell adhesion: Quantitation of cell-matrix attachment, 2002; Vol. 69, pp 281-296). Non-adhered fibroblasts have rounded morphologies and adhered fibroblasts have spread morphologies Proliferation was measured both qualitatively by optical microscopy and quantitatively by a ^3H thymidine-based cell seeding assay as described below. Hydrogels were prepared in 48 well tissue culture plates by either one of the following protocols. Protocol 1: MAX1 was dissolved in water (resulting in an acidic solution, pH˜5) and an equal volume of buffer (pH 9, 250 mM borate, 20 mM NaCl) was added at room temperature to induce folding/self-assembly resulting in a 2 wt % hydrogel. The resulting gel was bathed in DMEM containing 10% calf serum and 10 mg/mL gentamicin. […]

[3] = Temperature dependent CD of peptide folding and self-assembly (Tgel), with rheology of thermal reversibility; assay type: physicochemical; conditions: for Tgel, temperature at which folding and consequent self-assembly is triggered: 150 μM peptide, 125 mM Borate, 10 mM NaCl, pH 9, CD [θ]218; for reversibility of thermally induced hydrogelation: CD 150 μM and rheology 2 wt %, heating/cooling cycles 5-80° C.
Description: At low temperature MAX1 is unfolded (and unassembled). At high temperature MAX1 folds into beta-sheet (and consequently self-assembles into a hydrogel). […] The relative hydrophobicity is MAX1>MAX2>MAX3 due to the isostructural but less hydrophobic substitutions of threonine for valine at the underlined positions. The most hydrophobic folds at the lowest temperature while the least hydrophobic folds at the highest temperature. This is a direct manifestations of the molecular parameter manipulations described in FIG. 2. Also shown are the calculated free energy of transfer of each corresponding unfolded peptide having an overall +8 charge state from octanol into water at 25° C. MAX1, the most hydrophobic has the highest free energy of transfer equal to 7.60 kcal/mol. MAX2 has a calculated transfer free energy of 6.88 kcal/mol, while the least hydrophobic MAX3 has the lowest energy of transfer of 6.45 kcal/mol.
This allows the characteristics of the hydrogels of the invention to be varied by adjusting these parameters. […] It is well known that water is better able to solvate hydrophobic groups at low temperatures. This phenomenon has been used to describe the cold denaturation of proteins where some proteins unfold at low temperatures, exposing their hydrophobic interiors to aqueous solvent. A 150 μM aqueous solution of MAX1 unfolds when cooled below room temperature. The CD spectrum at 5° C. is consistent with random coil conformation, FIG. 9A. However, warming the solution to 40° C. results in a spectra consistent with β-sheet structure. […] In fact, previous studies involving the pH induced folding and self-assembly of MAX1 were performed at 20° C. At this temperature, folding and self-assembly are slow enough to be conveniently monitored. At higher temperatures, folding and self-assembly leading to hydrogelation is fast (instantaneous to seconds depending on concentration). If the formation of hydrophobic interactions affects the folding and self-assembly process, then altering the hydrophobic content of MAX1 should affect the temperature at which folding is triggered. […] MAX2 is identical to MAX1 except that one valine residue has been replaced with the isostructural, but less hydrophobic residue, threonine. In MAX3, two valines are replaced with threonine residues. The resulting peptides vary in their hydrophobicity as evident by comparing calculated free energies of transfer from octanol into water, FIG. 9. […] Thus, the formation of hydrophobic contacts influences folding and self-assembly. […] Thus, the characteristics of the hydrogels of the invention can be varied by adjusting the amino acid residues of the peptides used to form the hydrogels to increase or decrease the hydrophobicity of the amino acid residues used.
There are reports of large polymers that are thermally responsive. The present invention provides the first system that employs temperature triggered folding to induce self-assembly. […] Heating the solution to 80° C. results in a spectra consistent with β-sheet structure. […] The temperatures used in both CD and rheology bracket the temperature (Tgel=60° C., FIG. 9) at which folding and consequent self-assembly is triggered. […] For example, free flowing peptide solutions could be prepared at room temperature and administered in vivo where the temperature of the body could induce gelation. Some Poly-N-isopropylacrylamide polymers have been engineered have been engineered to undergo such transitions ultimately affording extracellular-like scaffolds for tissue regeneration. The above studies support the idea that the formation of hydrophobic interactions are important. MAX1-3 all contain valines and threonines at hydrogen bonded positions. At these positions, their side chains prefer to adopt a trans rotamer. […]

[4] = Folding (CD) and hydrogelation of sequence variants under folding conditions; assay type: physicochemical; conditions: for conformation by CD under folding conditions: 150 μM, pH 9.0, 125 mM Borate, 10 mM NaCl
Description: In some embodiments of the invention, various functionalities (e.g., cell adhesion epitopes, receptor agonists, receptor antagonists, ligands, small molecules, etc) may be incorporated into the hairpin hydrogel scaffold. One way to accomplish this would be to functionalize one or more amino acid side chains of the peptide. […] In some embodiments, the moieties to be incorporated at a particular side chain may be much larger (e.g. RGD-based motifs) and may contain charged residues. MAX5 (VKVKVKVKV^DPPTKVKEKVKV-NH2) was prepared to investigate the possibility of incorporating a charged residue on the hydrophobic face of MAX1. The sequence contains a glutamic acid residue at position 16 which is negatively charged at basic pH where MAX1 normally folds and assembles. […] However, alterations to the hydrophilic face of MAX1 are well tolerated. Sequences in which one or two lysine residues are replaced with other residues such as cysteine, serine, and glutamic acid are capable of folding and self-assembly into rigid hydrogels (data not shown).
The peptides described above contain identical turn sequences, namely (-V^DPPT-). This sequence has a strong propensity to form a type II′ turn and therefore helps to drive intramolecular folding. Since intramolecular folding must occur prior to self-assembly, alterations to this turn sequence that inhibit turn structure formation can be used to modulate intramolecular folding and self-assembly leading to hydrogelation. MAX9 was prepared to probe the importance of the turn region (VKVKVKVKV^LPPTKVKVKVKV-NH2). MAX9 is identical to MAX1 with the exception that the ^DPro at position ten has been replaced with ^LPro. Unlike the dipeptide ^DPro^LPro contained within MAX1 that favors type II′ turn formation, the ^LPro^LPro motif of MAX9 favors an open conformation. The two strands emanating from an open ^LPro^LPro conformation would be projected in opposite directions. Thus, intramolecular folding resulting in β-hairpin formation would be highly unfavored. […]

Compound: -DRKADGYIDFEE-
Kd for Ca(II) ([1]; linear peptide, calcium binding loop of Troponin C): low mM

Compound: CC(C)[C@H](N)C(=O)N[C@@H](CCCCN)C(=O)N[C@H](C(=O)N[C@@H](CCCCN)C(=O)N[C@H](C(=O)N[C@@H](CCCCN)C(=O)N[C@H](C(=O)N[C@@H](CCCCN)C(=O)N[C@H](C(=O)N1CCC[C@@H]1C(=O)N1CCC[C@H]1C(=O)N[C@H](C(=O)N[C@@H](CCCCN)C(=O)N[C@H](C(=O)N[C@@H](CCCCN)C(=O)N[C@H](C(=O)N[C@@H](CCCCN)C(=O)N[C@H](C(=O)N[C@@H](CCCCN)C(=O)N[C@H](C(N)=O)C(C)C)C(C)C)C(C)C)C(C)C)[C@@H](C)O)C(C)C)C(C)C)C(C)C)C(C)C [MAX1, VKVKVKVK V^DPPT KVKVKVKV-NH2] (H-VKVKVKVKV[dP]PTKVKVKVKV-NH2)
time cells remain viable on gel [2]: ≥ 1 month

Compound: NC(=O)CN1CCN(CC(N)=O)CCN(CC(N)=O)CCN(CC(N)=O)CC1 [DOTAM]
Kd ([1]; read-out: Kd for calcium): 29 nM

Compound: VKVKVKVK V^DPPT KVKTKVKV-NH2 [MAX2]
reversibility of thermally induced hydrogelation [3]: not reversible
temperature above which peptide folds/self-assembles ([3]; pH 9 (10 mM NaCl)): greater than 45 °C
temperature below which peptide is unfolded ([3]; pH 9 (10 mM NaCl)): below 40 °C

Compound: VKVKVKVK VPPT KVKVKVKV-NH2 (VKVKVKVKVPPTKVKVKVKV-NH2) [MAX9]
conformation by CD under folding conditions [4]: only random coil
hydrogelation ([4]; folding conditions, 2 wt % solutions): failed to undergo hydrogelation

The remaining lines, values ahead:

Tgel, temperature at which folding and consequent self-assembly is triggered [3]: 20 °C
Compound: KVKVKVKV K^DPPS VKVKVKVK-NH2 [MAX4]

Tgel, temperature at which folding and consequent self-assembly is triggered [3]: 60 °C
reversibility of thermally induced hydrogelation [3]: thermally reversible
Compound: VKVKVKTK V^DPPT KVKTKVKV-NH2 [MAX3]

conformation by CD under folding conditions [4]: random coil
Compound: VKVKVKVK V^DPPT KVKEKVKV-NH2 [MAX5]
